Measurements from patent US20240083853A1, “HSD17B13 INHIBITORS AND USES THEREOF” (FL2022-001, Inc., priority 2020, published 2024).

Molecular target: T1, Recombinant human HSD17B13 enzyme (Homo sapiens, UniProt Q7Z5P4)
T1 sequence (Q7Z5P4 20-300): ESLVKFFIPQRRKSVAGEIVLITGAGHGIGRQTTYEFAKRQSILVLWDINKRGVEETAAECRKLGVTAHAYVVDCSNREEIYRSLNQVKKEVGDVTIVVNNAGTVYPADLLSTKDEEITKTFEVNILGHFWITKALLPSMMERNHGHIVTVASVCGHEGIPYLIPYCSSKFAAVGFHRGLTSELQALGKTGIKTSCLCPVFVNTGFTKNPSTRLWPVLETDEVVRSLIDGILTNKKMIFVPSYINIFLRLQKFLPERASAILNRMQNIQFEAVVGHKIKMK
Assay: HSD17b13 NAD(P)H-Glo biochemical assay
Settings: for IC50: 50 uM estradiol, 1 mM NAD+, NAD(P)H-Glo luminescence, read-out: HSD17β13 IC50; for inhibition at 10 µM: 3 h, at 10 uM compound, read-out: HSD17β13 % at 10 uM
How it was run: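 Recombinant human HSD17B13 in 20 mM Tris pH7.4 with 0.002% Tween-20 and 0.02% BSA was preincubated with inhibitor for 20 minutes at RT. The reaction ran 3 hours at 37° C with 50 uM estradiol and 1 mM NAD+ (final). NADH formed was detected by NAD(P)H-Glo luminescence after 1 hour at RT.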

SMILES | IC50 | inhibition at 10 µM
CS(=O)(=O)N1CCN(c2ccc(-n3ncc4cc(F)c(O)c(Cl)c43)cc2)CC1 [Compound 25, 7-Chloro-5-fluoro-1-(4-(4-(methylsulfonyl)piperazin-1-yl)phenyl)-1H-indazol-6-ol] | 100 to 1000 nM | 
CC1(C)CCN(c2ccc(-n3ncc4c(C(F)(F)F)c(F)c(O)cc43)cc2)CC1 [Compound 25.1, 1-(4-(4,4-Dimethylpiperidin-1-yl)phenyl)-5-fluoro-4-(trifluoromethyl)-1H-indazol-6-ol] | 100 to 1000 nM | 
CC1(C)CCN(c2ccc(-n3ncc4cc(F)c(O)nc43)cc2)CC1 [Compound 25.2, 1-(4-(4,4-Dimethylpiperidin-1-yl)phenyl)-5-fluoro-1H-pyrazolo[3,4-b]pyridin-6-ol] | 1000 to 30000 nM | 
CS(=O)(=O)N1CCN(c2ccc(-n3ncc4cc(F)c(O)nc43)cc2)CC1 [Compound 25.3, 5-Fluoro-1-(4-(4-(methylsulfonyl)piperazin-1-yl)phenyl)-1H-pyrazolo[3,4-b]pyridin-6-ol] |  | 35%
CC1(C)CCN(c2ccc(-n3ncc4cnc(O)c(F)c43)cc2)CC1 [Compound 25.4, 1-(4-(4,4-Dimethylpiperidin-1-yl)phenyl)-7-fluoro-1H-pyrazolo[4,3-c]pyridin-6-ol] |  | < 20%
CS(=O)(=O)N1CCN(c2ccc(-n3ncc4cnc(O)c(F)c43)cc2)CC1 [Compound 25.5, 7-Fluoro-1-(4-(4-(methylsulfonyl)piperazin-1-yl)phenyl)-1H-pyrazolo[4,3-c]pyridin-6-ol] |  | < 20%
Cc1c(O)c(F)cc2cnn(-c3ccc(N4CCC(C)(C)CC4)cc3)c12 [Compound 25.6, 1-(4-(4,4-Dimethylpiperidin-1-yl)phenyl)-5-fluoro-7-methyl-1H-indazol-6-ol] | < 100 nM | 
CC1(C)CCN(c2ccc(-n3ncc4cc(F)c(O)c(F)c43)cn2)CC1 [Compound 26, 1-(6-(4,4-Dimethylpiperidin-1-yl)pyridin-3-yl)-5,7-difluoro-1H-indazol-6-ol] | < 100 nM | 
Oc1c(F)cc2cnn(-c3ccc(N4CCC5(CCO5)CC4)cc3)c2c1F [Compound 26.1, 1-(4-(1-Oxa-7-azaspiro[3.5]nonan-7-yl)phenyl)-5,7-difluoro-1H-indazol-6-ol] | 100 to 1000 nM | 
CS(=O)(=O)N1CCN(c2ccc(-n3ncc4cc(F)c(O)c(F)c43)cn2)CC1 [Compound 26.2, 5,7-Difluoro-1-(6-(4-(methylsulfonyl)piperazin-1-yl)pyridin-3-yl)-1H-indazol-6-ol] | 100 to 1000 nM | 
CC1(C)CCN(c2ccc(-n3ncc4cc(F)c(O)c(F)c43)nc2)CC1 [Compound 26.3, 1-(5-(4,4-Dimethylpiperidin-1-yl)pyridin-2-yl)-5,7-difluoro-1H-indazol-6-ol] | < 100 nM | 
CS(=O)(=O)N1CCN(c2ccc(-n3ncc4cc(F)c(O)c(F)c43)nc2)CC1 [Compound 26.4, 5,7-Difluoro-1-(5-(4-(methylsulfonyl)piperazin-1-yl)pyridin-2-yl)-1H-indazol-6-ol] | 1000 to 30000 nM | 
CS(=O)(=O)N1CCN(c2ccc(-n3ncc4ccc(O)cc43)cc2)CC1 [Compound 26.5, 1-(4-(4-(Methylsulfonyl)piperazin-1-yl)phenyl)-1H-indazol-6-ol] |  | 35%
CC1(C)CCN(c2cnc(-n3ncc4cc(F)c(O)c(F)c43)cn2)CC1 [Compound 26.6, 1-(5-(4,4-Dimethylpiperidin-1-yl)pyrazin-2-yl)-5,7-difluoro-1H-indazol-6-ol] | < 100 nM | 
CS(=O)(=O)N1CCN(c2cnc(-n3ncc4cc(F)c(O)c(F)c43)cn2)CC1 [Compound 26.7, 5,7-Difluoro-1-(5-(4-(methylsulfonyl)piperazin-1-yl)pyrazin-2-yl)-1H-indazol-6-ol] | 100 to 1000 nM | 
CS(=O)(=O)N1CCN(c2cnc(-n3ncc4cc(F)c(O)c(F)c43)nc2)CC1 [Compound 26.9, 5,7-Difluoro-1-(5-(4-(methylsulfonyl)piperazin-1-yl)pyrimidin-2-yl)-1H-indazol-6-ol] | 100 to 1000 nM | 
CC1(C)CCN(c2ccc(-n3ncc4cc(F)c(O)c(C#N)c43)cc2)CC1 [Compound 26.10, 1-(4-(4,4-Dimethylpiperidin-1-yl)phenyl)-5-fluoro-6-hydroxy-1H-indazole-7-carbonitrile] | 100 to 1000 nM | 
CS(=O)(=O)N1CCN(c2ccc(-n3nnc4cc(F)c(O)c(F)c43)cn2)CC1 [Compound 26.13, 5,7-Difluoro-1-(6-(4-(methylsulfonyl)piperazin-1-yl)pyridin-3-yl)-1H-benzo[d][1,2,3]triazol-6-ol] | 100 to 1000 nM | 
CS(=O)(=O)N1CCN(c2ccc(-n3nnc4cc(F)c(O)c(F)c43)nc2)CC1 [Compound 26.16, 5,7-Difluoro-1-(5-(4-(methylsulfonyl)piperazin-1-yl)pyridin-2-yl)-1H-benzo[d][1,2,3]triazol-6-ol] | 100 to 1000 nM | 
CS(=O)(=O)N1CCN(c2ccc(-n3nnc4cc(F)c(O)c(F)c43)nn2)CC1 [Compound 26.25, 5,7-Difluoro-1-(6-(4-(methylsulfonyl)piperazin-1-yl)pyridazin-3-yl)-1H-benzo[d][1,2,3]triazol-6-ol] | 1000 to 30000 nM | 
Oc1c(F)cc2nnn(-c3ccc(N4CCO[C@@H](c5ccccc5)C4)cc3)c2c1F [Compound 26.26, (S)-5,7-Difluoro-1-(4-(2-phenylmorpholino)phenyl)-1H-benzo[d][1,2,3]triazol-6-ol] | 100 to 1000 nM | 
Oc1c(F)cc2nnn(-c3ccc(N4CCO[C@H](c5ccccc5)C4)cc3)c2c1F [Compound 26.27, (R)-5,7-Difluoro-1-(4-(2-phenylmorpholino)phenyl)-1H-benzo[d][1,2,3]triazol-6-ol] | 100 to 1000 nM | 
Oc1c(F)cc2nnn(-c3ccc(N4CCOC[C@H]4c4ccccc4)cc3)c2c1F [Compound 26.28, (R)-5,7-Difluoro-1-(4-(3-phenylmorpholino)phenyl)-1H-benzo[d][1,2,3]triazol-6-ol] | 100 to 1000 nM | 
Oc1c(F)cc2nnn(-c3ccc(N4CCOC[C@@H]4c4ccccc4)cc3)c2c1F [Compound 26.29, (S)-5,7-Difluoro-1-(4-(3-phenylmorpholino)phenyl)-1H-benzo[d][1,2,3]triazol-6-ol] | 100 to 1000 nM | 

The remaining lines, values ahead:

IC50 | inhibition at 10 µM | SMILES
100 to 1000 nM |  | CC1(C)CCN(c2cnc(-n3ncc4cc(F)c(O)c(F)c43)nc2)CC1 [Compound 26.8, 1-(5-(4,4-Dimethylpiperidin-1-yl)pyrimidin-2-yl)-5,7-difluoro-1H-indazol-6-ol]
< 100 nM |  | CC1(C)CCN(c2ccc(-n3nnc4cc(F)c(O)c(F)c43)cn2)CC1 [Compound 26.11, 1-(6-(4,4-Dimethylpiperidin-1-yl)pyridin-3-yl)-5,7-difluoro-1H-benzo[d][1,2,3]triazol-6-ol]
100 to 1000 nM |  | Oc1c(F)cc2nnn(-c3ccc(N4CC5(CCOCC5)C4)nc3)c2c1F [Compound 26.12, 1-(6-(7-Oxa-2-azaspiro[3.5]nonan-2-yl)pyridin-3-yl)-5,7-difluoro-1H-benzo[d][1,2,3]triazol-6-ol]
< 100 nM |  | CC1(C)CCN(c2ccc(-n3nnc4cc(F)c(O)c(F)c43)nc2)CC1 [Compound 26.14, 1-(5-(4,4-Dimethylpiperidin-1-yl)pyridin-2-yl)-5,7-difluoro-1H-benzo[d][1,2,3]triazol-6-ol]
100 to 1000 nM |  | Oc1c(F)cc2nnn(-c3ccc(N4CC5(CCOCC5)C4)cn3)c2c1F [Compound 26.15, 1-(5-(7-Oxa-2-azaspiro[3.5]nonan-2-yl)pyridin-2-yl)-5,7-difluoro-1H-benzo[d][1,2,3]triazol-6-ol]
< 100 nM |  | CC1(C)CCN(c2cnc(-n3nnc4cc(F)c(O)c(F)c43)cn2)CC1 [Compound 26.17, 1-(5-(4,4-Dimethylpiperidin-1-yl)pyrazin-2-yl)-5,7-difluoro-1H-benzo[d][1,2,3]triazol-6-ol]
100 to 1000 nM |  | Oc1c(F)cc2nnn(-c3cnc(N4CC5(CCOCC5)C4)cn3)c2c1F [Compound 26.18, 1-(5-(7-Oxa-2-azaspiro[3.5]nonan-2-yl)pyrazin-2-yl)-5,7-difluoro-1H-benzo[d][1,2,3]triazol-6-ol]
100 to 1000 nM |  | CS(=O)(=O)N1CCN(c2cnc(-n3nnc4cc(F)c(O)c(F)c43)cn2)CC1 [Compound 26.19, 5,7-Difluoro-1-(5-(4-(methylsulfonyl)piperazin-1-yl)pyrazin-2-yl)-1H-benzo[d][1,2,3]triazol-6-ol]
< 100 nM |  | CC1(C)CCN(c2cnc(-n3nnc4cc(F)c(O)c(F)c43)nc2)CC1 [Compound 26.20, 1-(5-(4,4-Dimethylpiperidin-1-yl)pyrimidin-2-yl)-5,7-difluoro-1H-benzo[d][1,2,3]triazol-6-ol]
100 to 1000 nM |  | Oc1c(F)cc2nnn(-c3ncc(N4CC5(CCOCC5)C4)cn3)c2c1F [Compound 26.21, 1-(5-(7-Oxa-2-azaspiro[3.5]nonan-2-yl)pyrimidin-2-yl)-5,7-difluoro-1H-benzo[d][1,2,3]triazol-6-ol]
 | 45% | CS(=O)(=O)N1CCN(c2cnc(-n3nnc4cc(F)c(O)c(F)c43)nc2)CC1 [Compound 26.22, 5,7-Difluoro-1-(5-(4-(methylsulfonyl)piperazin-1-yl)pyrimidin-2-yl)-1H-benzo[d][1,2,3]triazol-6-ol]
100 to 1000 nM |  | CC1(C)CCN(c2ccc(-n3nnc4cc(F)c(O)c(F)c43)nn2)CC1 [Compound 26.23, 1-(6-(4,4-Dimethylpiperidin-1-yl)pyridazin-3-yl)-5,7-difluoro-1H-benzo[d][1,2,3]triazol-6-ol]
1000 to 30000 nM |  | Oc1c(F)cc2nnn(-c3ccc(N4CC5(CCOCC5)C4)nn3)c2c1F [Compound 26.24, 1-(6-(7-Oxa-2-azaspiro[3.5]nonan-2-yl)pyridazin-3-yl)-5,7-difluoro-1H-benzo[d][1,2,3]triazol-6-ol]
